Source: ChEMBL document CHEMBL3507680, “University of Dundee, Gates Library screen for HepG2 cell viability”

Test: Human HepG2 cell viability assay in 384 well format
Assay type: toxicity, cell-based
Design: dose 125 nL, time 70.5 hour; cytotoxicity at 70.5 h: concentration not given beside the values
Details: HepG2 cells, read-out: Inhibition

SMILES	cytotoxicity at 70.5 h
Cc1cc(=O)n2nc(Oc3ccc(C#N)cc3Cl)sc2n1	-28%
COCCn1cc(NCc2c[nH]nc2C(C)(C)C)cn1	-4.3%
COCCn1cc(NCc2c[nH]nc2-c2ccc(OC)cc2)cn1	-5.02%
CN(c1ncnc2c1cnn2C)C1CCCN(c2cccnn2)C1 (configuration not stated)	0.765%
CN(c1ncnc2ccccc12)C1CCCN(c2cccnn2)C1 (configuration not stated)	-12.6%
C=C(C)CN(CC)Cc1nc(C)no1	-6.47%
CCC(CC)C(CNC(=O)Nc1ccc(OC)cc1)N1CCOCC1 (configuration not stated)	-12.2%
CCn1c(C)cc(C(=O)NCc2cccc(NS(C)(=O)=O)c2)c1C	16.2%
Cc1noc(C)c1CN(Cc1ccccc1)C(C)CN1CCOCC1 (configuration not stated)	-9.44%
O=S(=O)(C/C=C/c1ccccc1)Cc1nc(C2CC2)no1	-11.4%
CCC(CC)C(CNC(=O)Nc1cnn(CCOC)c1)N(C)C (configuration not stated)	-8.7%
CC(CN1CCOCC1)N(Cc1ccccc1)Cc1ccncc1 (configuration not stated)	-6.88%
Cc1cc(C(=O)Nc2ccc(OC3CCOCC3)c(C)c2)[nH]n1	-17.3%
Cc1ccc(C(NC(=O)Cn2cc(C3CC3)nn2)C2CC2)cc1 (configuration not stated)	-7.56%
O=C(NCc1ncc[nH]1)c1c(F)cccc1I	11.2%
Cc1ccccc1C(NC(=O)Cn1cc(C2CC2)nn1)C1CC1 (configuration not stated)	-3.63%
Cc1c(I)cccc1C(=O)NCc1nnc[nH]1	-8.8%
CNC(=O)c1cccc(CNC(C)c2ccc(F)cc2N(C)C)c1 (configuration not stated)	-7.51%
Cc1n[nH]c(C)c1C1CCCN1C(=O)c1cc(Br)c[nH]1 (configuration not stated)	12.3%
CCN(C(=O)c1cccc2c1OCO2)c1ccc(Br)cn1	-7.06%
NC(=O)c1cccc(CCNC(=O)N2Cc3ccccc3C2)c1	-2.71%
Cc1oc(CN(C)C(=O)c2ccc(Br)cc2)cc1C(=O)O	-8.74%
CNC(=O)c1cccc(CNC(C)c2cc(C)ccc2OC(F)F)c1 (configuration not stated)	-7.54%
Cc1noc(C)c1CN(Cc1ccccc1)C(C)C	12.4%

SMILES	cytotoxicity at 70.5 h
Cc1n[nH]c(C)c1C1CCCN1C(=O)c1coc(Br)c1 (configuration not stated)	-5.01%
CN(Cc1cccs1)C(=O)CNC1CCc2ncnn2C1 (configuration not stated)	-5.9%
C=C(C)CN(CC)Cc1nc(C(C)(C)C)no1	10.8%
CC(C)N(CCNC(=O)c1ccc(S(=O)(=O)NC2CC2)cc1)C(C)C	25.6%
COc1ccc(NC(C)=O)cc1OCc1cccnc1	29.5%
COc1ccc(NC(=O)C(C)(C)C)cc1OCc1cccnc1	3.3%
CCC(CNC(=O)Cc1c(C)noc1C)N1CCCC1 (configuration not stated)	-6.77%
Cc1noc(C)c1CC(=O)NCC(CC(C)C)N1CCOCC1 (configuration not stated)	-4.86%
Cc1noc(C)c1CC(=O)NCC(C)N1CCOCC1 (configuration not stated)	-2.99%
O=C(Nc1c(F)cccc1Oc1ccccc1)C1CCS(=O)(=O)C1 (configuration not stated)	-1.02%
CCNC(=O)NC(=O)CN1CCOC(c2ccccc2Cl)C1 (configuration not stated)	-9.68%
CC(O)CCN(C)c1nc2ccccc2c(=O)[nH]1 (configuration not stated)	-6.49%
COCCC1(CNC(=O)NCC2CCC2)CCC1	-0.0221%
Cc1csc(CN2CC(CO)Oc3ccccc32)n1 (configuration not stated)	7.51%
CN(CCC(F)(F)F)c1nc2ccccc2c(=O)[nH]1	0.426%
Cc1cc(-n2cncn2)ccc1C(=O)Nc1ccc(N2CCCC2)cn1	-1.24%
CC(C)Cn1cc(NC(=O)N2CCOC(c3ccccc3)C2)cn1 (configuration not stated)	-4.35%
CC(C)(C)C(=O)N1CCN(C(=O)Nc2cnn(CC(F)F)c2)CC1	-7.22%
COCCC1(CNC(=O)NCC2CCCN(C)C2)CCC1 (configuration not stated)	-12%
O=C(CCN1CCCCCC1c1ccco1)N1CCOCC1 (configuration not stated)	-9.92%
CC(C)c1nc(C2CCCN2CCN2CCCCC2)no1 (configuration not stated)	-5.16%
CC(C)N(Cc1ccccn1)C(=O)CN(C)C(=O)c1cccs1	-22.7%
CC1C(=O)NCCN1CCOc1ccc(C#N)cc1 (configuration not stated)	-21.1%
CC(C)(C)c1n[nH]cc1CNC1CCC(O)CC1 (configuration not stated)	-19.6%

SMILES	cytotoxicity at 70.5 h
Cc1nc(NC(=O)NCCCN2CCC(C(N)=O)CC2)sc1C	-19.5%
CCC(Nc1ccc(CCN2CCOCC2)cc1)C(N)=O (configuration not stated)	-19.6%
Cc1cc(F)ccc1N1CCCC(NC(=O)CCc2ccncc2)C1 (configuration not stated)	-23.5%
CCOC(=O)C(C)Nc1ccc(CCN2CCOCC2)cc1 (configuration not stated)	-16.3%
O=C(CNc1ccc(OC2CCOC2)cc1)NCc1ccco1 (configuration not stated)	-21.4%
Cc1c(C(=O)NCCCS(C)(=O)=O)cccc1-c1ccccn1	7.88%
Cc1cnn(CCCNC(=O)NCCC(=O)Nc2ccccc2)c1	-11.8%
CCc1cc(N2CCC(NCc3ccc(C)o3)CC2)ncn1	9.42%
CCN(Cc1nc(Cc2ccccc2)no1)C1CC1	-4.11%
Cc1ccc2nc(CN3CCCCC3C(=O)N3CCOCC3)cn2c1 (configuration not stated)	7.36%
CC(C)c1nc(C2CCCN2CCOCC2CC2)no1 (configuration not stated)	-15.5%
CC(C)c1nc(C2CCCN2CCc2ccccn2)no1 (configuration not stated)	-15.3%
O=C(CNc1ccc(OC2CCOC2)cc1)NCc1cccs1 (configuration not stated)	-18.3%
Cc1c(C(=O)NCCC(=O)N2CCCC2)cccc1-c1ccccn1	-17.7%
Cc1cc(CC(=O)NC2CCCN(c3ccccc3F)C2=O)n[nH]1 (configuration not stated)	2.16%
O=C(CCCn1ccnc1)NC1CCCN(c2ccccc2Cl)C1 (configuration not stated)	-18%
Cc1csc(N2CCN(CCCN3CCCC3=O)CC2)n1	-0.2%
Cc1ccc(S(=O)(=O)NC(=O)c2cc(S(C)(=O)=O)ccc2C)s1	-0.802%
O=C(NCCCn1cccn1)c1csc2c1CCCC2	-11.3%
CC(C)Oc1nnc(SCC(=O)NCC(=O)N2CCCC2)s1	-10.4%
Cc1cc(NCC2CCN(c3ccccc3)C2)n2ncnc2n1 (configuration not stated)	-1.33%
Cc1cc(C)c(CNC(=O)N(C)Cc2nnc3n2CCC3)c(=O)[nH]1	-10.3%
Cc1csc(CNC(=O)N(C)Cc2nnc3n2CCC3)n1	-12.1%
Cc1cccc(-c2nc(C)nn2CN2CCC3(CC2)OCCO3)c1	11.8%

SMILES	cytotoxicity at 70.5 h
Cc1cnn(C2CN(Cc3noc(-c4ccccc4)n3)C2)c1	-7.62%
Cc1cc(NC2CCN(c3ccccc3)C2)n2ncnc2n1 (configuration not stated)	-5.01%
CCN(CC)S(=O)(=O)c1ccc(CNC(=O)c2cc(C)on2)cc1	-2.55%
O=C(NCCN1CCOCC1)Nc1cc(F)ccc1-n1cccn1	-0.85%
NC(=O)CN1CCC(Nc2ccnc3ccc(Cl)cc23)CC1	-1.05%
Cc1ccc(S(C)(=O)=O)cc1C(=O)NS(=O)(=O)c1ccc(Cl)cc1	-4.48%
Cc1nn(C)cc1C(=O)N1CCC(CSc2ccccc2)C1 (configuration not stated)	-1.58%
Cc1cccc(-c2nc(C)nn2CN2CCN(c3ncccn3)CC2)c1	-5.76%
Cc1csc(N2CCCN(C(=O)CCN3CCCC3=O)CC2)n1	-8.02%
CCc1ncnc(N(C)CC2CCCCO2)c1F (configuration not stated)	2.36%
Cc1ncsc1C(=O)NCCN1CCCCCC1=O	-12.3%
COCCN(C)c1cnn(C)c(=O)c1Br	-14.7%
CC(c1ncc(-c2ccccc2)o1)N1CCN(C(=O)N(C)C)CC1 (configuration not stated)	-2.55%
CN(CCc1ccccn1)c1cnn(C)c(=O)c1Br	-11.5%
Cc1cc(=O)n2nc(Oc3cccc(C(N)=O)c3)sc2n1	-25%
Cc1cc(=O)n2nc(Oc3ccc(F)c(F)c3)sc2n1	40.7%
Cc1cc(=O)n2nc(Oc3cc(Cl)cc(Cl)c3)sc2n1	-19.3%
Cc1ncsc1C(=O)NCCCN1CCCCCC1=O	-7.13%
CC(C)Oc1ncccc1CNC(=O)NC(C)c1cccs1 (configuration not stated)	-21%
O=C(NCc1cc(Br)cs1)Nc1cn[nH]c1	-23.7%
O=C(NCc1csc(Br)c1)Nc1cn[nH]c1	39.3%
Cc1cc(Cl)c(C)c(S(=O)(=O)N2CCN(Cc3ccncc3)CC2)c1Cl	-25.9%
CC(=O)N1CC[C@@H]2O[C@H](C(=O)Nc3nc(C)cs3)C[C@@H]21	-3.43%
CCN(C(=O)c1nc2c(s1)CCCN2S(C)(=O)=O)C(C)C	13.1%

SMILES	cytotoxicity at 70.5 h
c1cc(COC[C@@]23CCC[C@@H]2CN(C2CCOCC2)C3)ccn1	-2.91%
O=C1CO[C@@H]2CN(S(=O)(=O)c3ccccc3F)C[C@H]2N1	-3.37%
Cn1cc(CN2CCc3onc(C(=O)Nc4cccnc4)c3C2)cn1	-3.27%
CN(C)C(=O)[C@H]1CCS(=O)(=O)[C@@H]2CN(c3ncc(F)cn3)C[C@H]12	23.5%
O=S(=O)(c1cccs1)N1Cc2nc(COCC3CC3)oc2C1	-5.06%
CC(=O)N1CCC2(CC1)CN(C(C)C)c1ccc(F)cc12	-1.77%
Cc1ccc(Oc2cc(CN)ccn2)cc1C	-22.3%
CC(C)(C)c1n[nH]cc1CNC1CCC(C(F)(F)F)CC1 (configuration not stated)	-0.127%
Cn1cc(C(=O)NCc2cncc3c2CCN(S(C)(=O)=O)C3)cn1	0.567%
Cn1cc(C(=O)NCc2cncc3c2CCN(c2ccccn2)C3)cn1	17.4%
COCC1COCCC12CCN(S(=O)(=O)c1cccnc1)CC2 (configuration not stated)	-1.01%
Cc1noc(C)c1CN1CCn2cc(CN3CCCCC3)nc2C1	-3.15%
CN1C(=O)CCC12CCCN(C(=O)c1ccncc1F)C2 (configuration not stated)	-5.46%
Cn1cnc(S(=O)(=O)N2CC3(CCN(c4ccccc4)C3)C2)c1	20.3%
c1ccc(N2CCOC3(CCCN(c4ncccn4)C3)C2)nc1 (configuration not stated)	-5.71%
Cc1cccc(N2CC[C@H]3[C@H](CO[C@@H]3CN(C)Cc3ccco3)C2)n1	2.69%
Cc1ccc(N2CC[C@H]3CO[C@H](CN(C)Cc4ccco4)[C@H]3C2)nn1	-0.777%
CCOC(=O)[C@]12CCCN(Cc3cccs3)C[C@H]1CN(C(C)C)C2	1.55%
Cc1ccc(CN2C[C@H](OCCN(C)C)[C@H]3COC[C@H]32)o1	-0.961%
c1coc(CN2C[C@@H]3CN(Cc4ccoc4)CCO[C@@H]3C2)c1	-1.5%
Cn1cnc(S(=O)(=O)N2CC3(CCN(CC4CC4)C3)C2)c1	14.6%
